Assay results reported in ChEMBL document CHEMBL1150944, “New glycosides from ajuga decumbens” (J Nat Prod, 1998).

Experiments:
[1] = system: Raji; assay: Inhibition of TPA-induced EBV-early antigen activation in human Raji cells at 1000 molar ratio after 48 hrs relative to TPA by indirect immunofluorescence technique; values are per cent of control; conditions: human gammaherpesvirus 4
[2] = Cytotoxicity against human Raji cells assessed as cell viability at 10 molar ratio after 48 hrs; format: cell-based; conditions: read-out: Activity
[3] = system: Raji; assay: Inhibition of TPA-induced EBV-early antigen activation in human Raji cells at 500 molar ratio after 48 hrs relative to TPA by indirect immunofluorescence technique; values are per cent of control; conditions: human gammaherpesvirus 4
[4] = Cytotoxicity against human Raji cells assessed as cell viability at 500 molar ratio after 48 hrs; format: cell-based; conditions: read-out: Activity
[5] = system: Raji; assay: Inhibition of TPA-induced EBV-early antigen activation in human Raji cells at 10 molar ratio after 48 hrs relative to TPA by indirect immunofluorescence technique; values are per cent of control; conditions: human gammaherpesvirus 4
[6] = Cytotoxicity against human Raji cells assessed as cell viability at 1000 molar ratio after 48 hrs; format: cell-based; conditions: read-out: Activity
[7] = system: Raji; assay: Inhibition of TPA-induced EBV-early antigen activation in human Raji cells at 100 molar ratio after 48 hrs relative to TPA by indirect immunofluorescence technique; values are per cent of control; conditions: human gammaherpesvirus 4
[8] = Cytotoxicity against human Raji cells assessed as cell viability at 100 molar ratio after 48 hrs; format: cell-based; conditions: read-out: Activity

Row | SMILES | level, % of control [1] [%] | viability at 48 h, 10 molar ratio [2] [%] | level, % of control [3] [%] | viability at 48 h, 500 molar ratio [4] [%] | level, % of control [5] [%] | viability at 48 h, 1000 molar ratio [6] [%] | level, % of control [7] [%] | viability at 48 h, 100 molar ratio [8] [%]
1 | CC(=O)O[C@@]1(C)CC[C@]2(O)C=CO[C@@H](O[C@@H]3O[C@H](CO)[C@@H](O)[C@H](O)[C@H]3O)[C@@H]21 [REPTOSIDE] | 0 | > 80 | 22.4 | > 80 | 90.3 | 60 | 71.3 | > 80
2 | COc1ccc(CCO[C@@H]2O[C@H](CO)[C@@H](O)[C@H](O[C@@H]3O[C@@H](C)[C@H](O)[C@@H](O)[C@H]3O)[C@H]2O)cc1O [DARENDOSIDE A] | 22.6 | > 80 | 53.8 | > 80 | 100 | 70 | 81.6 | > 80
3 | COc1ccc(CCO[C@@H]2O[C@H](CO)[C@@H](OC(=O)/C=C/c3ccc(O)c(OC)c3)[C@H](O[C@@H]3O[C@@H](C)[C@H](O)[C@@H](O)[C@H]3O)[C@H]2O)cc1O [MARTYNOSIDE A] | 0 | > 80 | 31.7 | > 80 | 89.4 | 60 | 66.4 | > 80
4 | C[C@]1(O)C[C@@H](O)[C@]2(O)C=CO[C@@H](O[C@@H]3O[C@H](CO)[C@@H](O)[C@H](O)[C@H]3O)[C@@H]21 [HARPAGIDE] |  | > 80 |  | > 80 |  | 60 |  | > 80
5 | COc1ccc(CCO[C@@H]2O[C@H](CO)[C@@H](OC(=O)/C=C/c3ccc(O)c(OC)c3)[C@H](O[C@@H]3O[C@@H](C)[C@H](O)[C@@H](O)[C@H]3O[C@@H]3O[C@H](CO)[C@H](O)[C@H](O)[C@H]3O)[C@H]2O)cc1O [GALACTOSYLMARTYNOSIDE] | 0 | > 80 | 31.8 | > 80 | 98.5 | 60 | 76 | > 80
6 | CC(=O)O[C@@]1(C)C[C@@H](O)[C@]2(O)C=CO[C@@H](O[C@@H]3O[C@H](CO)[C@@H](O)[C@H](O)[C@H]3O)[C@@H]21 | 0 | > 80 | 19.9 | > 80 | 89.5 | 60 | 62.6 | > 80
7 | CC(CO)c1cc2c(c(O)c1O[C@@H]1O[C@H](CO)[C@@H](O)[C@H](O)[C@H]1O)[C@@]1(C)CCC[C@](C)(CO[C@@H]3O[C@H](CO)[C@@H](O)[C@H](O)[C@H]3O)[C@@H]1CC2 (stereo partly specified) [AJUGASIDE A] | 0 | > 80 | 24.9 | > 80 | 91 | 60 | 68.3 | > 80
8 | C[C@]1(O)C[C@@H](O)[C@]2(O)C=CO[C@@H](O[C@H]3O[C@H](CO)[C@@H](O)[C@H](O)[C@H]3O)[C@@H]21 | 0 |  | 52.7 |  | 100 |  | 80.1 | 
